Experimental data published in patent US11479559B2, “Urea-substituted aromatic ring-linked dioxinoquinoline compounds, preparation method and uses thereof” (BEIJING SCITECH-MQ PHARMACEUTICALS LIMITED, priority 2018, dated 2022).
Where two headings read alike, the source gives them in different places.

What was measured:
RET tyrosine kinase = RET tyrosine kinase (Homo sapiens (Human), UniProt P07949); experiment: Assay of small molecular compounds for inhibiting the activity of RET kinase (LANCE TR-FRET)
Procedure: (§1) The assay is based on the LANCE TR-FRET technology of Perkin Elmer Inc., and the assay method is as follows:
(§2) 2.5 μL of the gradient-diluted compounds were taken with a transfer pipette to a 384-well plate.
Addition of enzyme: 5 μL of 2× RET kinase solution (concentration was 0.8 nM) was taken with a transfer pipette to the corresponding reaction well of the 384-well plate, mixed well and pre-reacted at room temperature for 30 minutes.
2.5 μL 4× Ultra ULight™-JAK-1 (Tyr1023) Peptide (concentration was 200 nM)/ATP (concentration was 40 μM) mixture was taken with a transfer pipette to the corresponding reaction well of the 384-well plate.
(§3) The final concentration of DMSO in the reaction system was 4%.
(§4) The mixture was mixed well and then centrifuged and reacted at room temperature in dark for 60 min.
(§5) The 384-well plate was placed into the Envision plate reader and the signal was detected using the appropriate program.

VEGFR2 tyrosine kinase = VEGFR2 tyrosine kinase (Homo sapiens (Human), UniProt P35968); experiment: Assay of small molecular compounds for inhibiting the activity of VEGFR-2 kinase (LANCE TR-FRET)
VEGFR2 tyrosine kinase, sequence (P35968 20-1356): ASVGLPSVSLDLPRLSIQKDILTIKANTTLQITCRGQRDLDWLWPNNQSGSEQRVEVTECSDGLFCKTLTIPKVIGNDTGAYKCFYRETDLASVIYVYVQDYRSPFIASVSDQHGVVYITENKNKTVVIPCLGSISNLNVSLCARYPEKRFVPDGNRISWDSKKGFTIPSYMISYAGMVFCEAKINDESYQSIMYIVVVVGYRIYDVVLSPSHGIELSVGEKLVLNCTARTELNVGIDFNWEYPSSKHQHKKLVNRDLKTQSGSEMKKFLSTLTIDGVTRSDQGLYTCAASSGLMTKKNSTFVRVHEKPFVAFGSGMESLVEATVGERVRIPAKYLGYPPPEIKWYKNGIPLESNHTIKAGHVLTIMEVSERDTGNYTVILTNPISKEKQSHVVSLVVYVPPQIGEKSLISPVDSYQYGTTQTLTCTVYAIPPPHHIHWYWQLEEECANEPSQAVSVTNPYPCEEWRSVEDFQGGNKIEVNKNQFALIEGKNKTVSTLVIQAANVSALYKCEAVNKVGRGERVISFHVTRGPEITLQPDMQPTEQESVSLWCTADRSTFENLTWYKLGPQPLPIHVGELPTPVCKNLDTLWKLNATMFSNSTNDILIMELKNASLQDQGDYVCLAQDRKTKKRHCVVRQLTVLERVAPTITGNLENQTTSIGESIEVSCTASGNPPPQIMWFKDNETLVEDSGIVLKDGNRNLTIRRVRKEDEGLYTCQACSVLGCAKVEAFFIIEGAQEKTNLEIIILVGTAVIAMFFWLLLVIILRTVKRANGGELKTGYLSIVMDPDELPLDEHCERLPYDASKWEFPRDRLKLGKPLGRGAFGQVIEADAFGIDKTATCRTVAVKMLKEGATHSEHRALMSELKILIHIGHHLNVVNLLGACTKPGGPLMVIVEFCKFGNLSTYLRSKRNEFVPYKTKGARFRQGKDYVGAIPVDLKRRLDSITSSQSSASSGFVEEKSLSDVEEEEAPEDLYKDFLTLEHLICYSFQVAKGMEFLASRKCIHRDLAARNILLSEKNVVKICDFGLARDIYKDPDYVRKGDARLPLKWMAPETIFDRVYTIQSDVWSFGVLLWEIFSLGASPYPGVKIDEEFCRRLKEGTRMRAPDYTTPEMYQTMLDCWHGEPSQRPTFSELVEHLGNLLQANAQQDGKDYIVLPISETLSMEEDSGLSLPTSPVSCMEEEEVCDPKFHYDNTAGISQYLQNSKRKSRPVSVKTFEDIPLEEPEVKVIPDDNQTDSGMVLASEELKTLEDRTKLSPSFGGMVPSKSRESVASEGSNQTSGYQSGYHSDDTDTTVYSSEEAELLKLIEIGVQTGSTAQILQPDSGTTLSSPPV
Procedure: as §1, §2
Addition of enzyme: 5 μL of 2× VEGFR2 kinase solution (concentration was 0.5 nM) was taken with a transfer pipette to the corresponding reaction well of the 384-well plate, mixed well and pre-reacted at room temperature for 30 minutes.
2.5 μL 4× Ultra ULight™-JAK-1 (Tyr1023) Peptide (concentration was 200 nM)/ATP (concentration was 40 μMM) mixture was taken with a transfer pipette to the corresponding reaction well of the 384-well plate.
Negative control: 2.5 μL/well 4× substrate/ATP mixture and 7.5 μL 1× Kinase Assay Buffer were added to the wells of the 384-well plate.
as §3, §4, §5

RET tyrosine kinase, sequence (P07949 29-1114): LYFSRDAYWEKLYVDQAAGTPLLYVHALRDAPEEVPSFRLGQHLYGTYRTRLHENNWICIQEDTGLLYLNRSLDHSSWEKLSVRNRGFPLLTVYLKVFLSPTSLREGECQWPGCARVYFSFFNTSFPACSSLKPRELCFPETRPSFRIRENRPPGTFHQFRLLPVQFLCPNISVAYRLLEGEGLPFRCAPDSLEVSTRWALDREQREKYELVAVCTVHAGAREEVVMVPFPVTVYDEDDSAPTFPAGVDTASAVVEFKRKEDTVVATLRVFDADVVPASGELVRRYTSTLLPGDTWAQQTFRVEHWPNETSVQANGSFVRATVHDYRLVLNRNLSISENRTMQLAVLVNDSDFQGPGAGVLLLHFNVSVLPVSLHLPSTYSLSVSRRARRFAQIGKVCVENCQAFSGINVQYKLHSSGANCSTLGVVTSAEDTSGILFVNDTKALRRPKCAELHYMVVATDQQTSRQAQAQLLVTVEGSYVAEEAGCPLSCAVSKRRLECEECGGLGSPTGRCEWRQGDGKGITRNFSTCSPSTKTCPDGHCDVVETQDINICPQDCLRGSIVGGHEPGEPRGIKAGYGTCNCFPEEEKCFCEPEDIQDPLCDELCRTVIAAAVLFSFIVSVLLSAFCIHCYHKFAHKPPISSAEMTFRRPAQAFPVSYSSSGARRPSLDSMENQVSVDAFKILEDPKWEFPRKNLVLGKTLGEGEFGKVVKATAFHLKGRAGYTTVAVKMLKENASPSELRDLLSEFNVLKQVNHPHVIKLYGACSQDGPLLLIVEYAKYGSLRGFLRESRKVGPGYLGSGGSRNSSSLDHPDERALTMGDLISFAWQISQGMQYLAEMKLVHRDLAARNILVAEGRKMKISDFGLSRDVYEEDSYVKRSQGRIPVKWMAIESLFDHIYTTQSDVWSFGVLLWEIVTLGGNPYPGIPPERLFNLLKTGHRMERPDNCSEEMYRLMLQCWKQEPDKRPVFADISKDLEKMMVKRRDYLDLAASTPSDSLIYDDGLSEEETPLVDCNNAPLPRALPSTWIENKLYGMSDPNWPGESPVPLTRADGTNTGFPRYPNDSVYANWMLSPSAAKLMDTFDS

Row | Structure (SMILES) | IC50 (RET tyrosine kinase; read-out: RET IC50) [nM] | IC50 (VEGFR2 tyrosine kinase; read-out: VEGFR-2 IC50) [nM] | IC50 (RET tyrosine kinase) [nM] | IC50 (VEGFR2 tyrosine kinase) [nM]
1 | COc1cc2nccc(Oc3ccc(NC(=O)Nc4cc(C(F)(F)F)ccc4C)cc3)c2c2c1OCCO2 [Example 95, 1-(4-((5-methoxy-2,3-dihydro-[1,4]dioxino[2,3-f]quinolin-10-yl)oxy)phenyl)-3-(2-methyl-5-(trifluoromethyl)phenyl)urea] | < 50 | < 50 |  | 
2 | CC1(C)CCN(CCCOc2cc3nccc(Oc4ccc(NC(=O)NC5CC5)c(Cl)c4)c3c3c2OCCO3)CC1 [Example 59, 1-(2-chloro-4-((5-(3-(4,4-dimethylpiperidin-1-yl)propoxy)-2,3-dihydro-[1,4]dioxino[2,3-f]quinolin-10-yl)oxy)phenyl)-3-cyclopropylurea] | < 50 | < 50 |  | 
3 | N#CCOc1cc2nccc(Oc3ccc(NC(=O)NC4CC4)c(Cl)c3)c2c2c1OCCO2 [Example 47, 1-(2-chloro-4-((5-(cyanomethoxy)-2,3-dihydro-[1,4]dioxino[2,3-f]quinolin-10-yl)oxy)phenyl)-3-cyclopropylurea] | < 50 | < 50 |  | 
4 | CCNC(=O)Nc1ccc(Oc2ccnc3cc(OC)c4c(c23)OCCO4)cc1Cl [Example 80, 1-(2-chloro-4-((5-methoxy-2,3-dihydro-[1,4]dioxino[2,3-f]quinolin-10-yl)oxy)phenyl)-3-ethylurea] | < 50 | < 50 |  | 
5 | COc1cc2nccc(Oc3ccc(NC(=O)Nc4ccc(Cl)c(C(F)(F)F)c4)cc3)c2c2c1OCCO2 [Example 1, 1-(4-chloro-3-(trifluoromethyl)phenyl)-3-(4-((5-methoxy-2,3-dihydro-[1,4]dioxino[2,3-f]quinolin-10-yl)oxy)phenyl)urea] | < 50 | < 50 |  | 
6 | O=C(Nc1ccc(Oc2ccnc3cc(OCCO)c4c(c23)OCCO4)cc1)Nc1ccc(Cl)c(C(F)(F)F)c1 [Example 14, 1-(4-chloro-3-(trifluoromethyl)phenyl)-3-(4-((5-(2-hydroxyethoxy)-2,3-dihydro-[1,4]dioxino[2,3-f]quinolin-10-yl)oxy)phenyl)urea] | < 50 | < 50 |  | 
7 | COCCOc1cc2nccc(Oc3ccc(NC(=O)NC4CC4)c(Cl)c3)c2c2c1OCCO2 [Example 49, 1-(2-chloro-4-((5-(2-methoxyethoxy)-2,3-dihydro-[1,4]dioxino[2,3-f]quinolin-10-yl)oxy)phenyl)-3-cyclopropylurea] | < 50 | < 50 |  | 
8 | CCOc1cc2nccc(Oc3ccc(NC(=O)NC4CC4)c(F)c3)c2c2c1OCCO2 [Example 90, 1-cyclopropyl-3-(4-((5-ethoxy-2,3-dihydro-[1,4]dioxino[2,3-f]quinolin-10-yl)oxy)-2-fluorophenyl)urea] | < 50 | < 50 |  | 
9 | COCCN(C)CCCOc1cc2nccc(Oc3ccc(NC(=O)NC4CC4)c(Cl)c3)c2c2c1OCCO2 [Example 62, 1-(2-chloro-4-((5-(3-((2-methoxyethyl)(methyl)amino)propoxy)-2,3-dihydro-[1,4]dioxino[2,3-f]quinolin-10-yl)oxy)phenyl)-3-cyclopropylurea] | < 50 | < 50 |  | 
10 | O=C(Nc1ccc(Oc2ccnc3cc(OCCCN4CCCCC4)c4c(c23)OCCO4)cc1Cl)NC1CC1 [Example 54, 1-(2-chloro-4-((5-(3-(piperidin-1-yl)propoxy)-2,3-dihydro-[1,4]dioxino[2,3-f]quinolin-10-yl)oxy)phenyl)-3-cyclopropylurea] | < 50 | < 50 |  | 
11 | O=C(Nc1ccc(Oc2ccnc3cc(OCC4CC4)c4c(c23)OCCO4)cc1Cl)NC1CC1 [Example 46, 1-(2-chloro-4-((5-(cyclopropylmethoxy)-2,3-dihydro-[1,4]dioxino[2,3-f]quinolin-10-yl)oxy)phenyl)-3-cyclopropylurea] | < 50 | < 50 |  | 
12 | CCCNC(=O)Nc1ccc(Oc2ccnc3cc(OCCCN4CCOCC4)c4c(c23)OCCO4)cc1Cl [Example 87, 1-(2-chloro-4-((5-(3-morpholinopropoxy)-2,3-dihydro-[1,4]dioxino[2,3-f]quinolin-10-yl)oxy)phenyl)-3-prop ylurea] |  |  | < 50 | < 50
13 | O=C(Nc1ccc(Oc2ccnc3cc(OCCCN4CCCCC4)c4c(c23)OCCO4)cc1)Nc1ccc(Cl)c(C(F)(F)F)c1 [Example 19, 1-(4-chloro-3-(trifluoromethyl)phenyl)-3-(4-((5-(3-(piperidin-1-yl)propoxy)-2,3-dihydro-[1,4]dioxino[2,3-f]quinolin-10-yl)oxy)phenyl)urea] |  | < 50 |  | 

Continued, values first:

Row | IC50 (RET tyrosine kinase; read-out: RET IC50) [nM] | IC50 (VEGFR2 tyrosine kinase; read-out: VEGFR-2 IC50) [nM] | IC50 (RET tyrosine kinase) [nM] | IC50 (VEGFR2 tyrosine kinase) [nM] | Structure (SMILES)
14 | < 50 | < 50 |  |  | O=C(Nc1ccc(Oc2ccnc3cc(OCCO)c4c(c23)OCCO4)cc1Cl)NC1CC1 [Example 48, 1-(2-chloro-4-((5-(2-hydroxyethoxy)-2,3-dihydro-[1,4]dioxino[2,3-f]quinolin-10-yl)oxy)phenyl)-3-cyclopropylurea]
15 | < 50 | < 50 |  |  | CCCNC(=O)Nc1ccc(Oc2ccnc3cc(OC)c4c(c23)OCCO4)cc1Cl [Example 81, 1-(2-chloro-4-((5-methoxy-2,3-dihydro-[1,4]dioxino[2,3-f]quinolin-10-yl)oxy)phenyl)-3-propylurea]
16 |  |  | < 50 | < 50 | CNC(=O)Nc1ccc(Oc2ccnc3cc(OCCCN4CCOCC4)c4c(c23)OCCO4)cc1Cl [Example 85, 1-(2-chloro-4-((5-(3-morpholinopropoxy)-2,3-dihydro-[1,4]dioxino[2,3-f]quinolin-10-yl)oxy)phenyl)-3-methylurea]
17 | < 50 | < 50 |  |  | O=C(Nc1ccc(Oc2ccnc3cc(OCCCN4CCOCC4)c4c(c23)OCCO4)cc1)Nc1ccc(F)cc1F [Example 78, 1-(2,4-difluorophenyl)-3-(4-((5-(3-morpholinopropoxy)-2,3-dihydro-[1,4]dioxino[2,3-f]quinolin-10-yl)oxy)phenyl)urea]
18 | < 50 |  |  | 50 to 500 | N#CCCCOc1cc2nccc(Oc3ccc(NC(=O)Nc4ccc(Cl)c(C(F)(F)F)c4)cc3)c2c2c1OCCO2 [Example 94, 1-(4-chloro-3-(trifluoromethyl)phenyl)-3-(4-((5-(3-cyanopropoxy)-2,3-dihydro-[1,4]dioxino[2,3-f]quinolin-10-yl)oxy)phenyl)urea]
19 |  |  | < 50 | < 50 | COc1cc2nccc(Oc3ccc(NC(=O)NC4CC4)c(F)c3)c2c2c1OCCO2 [Example 84, 1-cyclopropyl-3-(2-fluoro-4-((5-methoxy-2,3-dihydro-[1,4]dioxino[2,3-f]quinolin-10-yl)oxy)phenyl)urea]
20 | < 50 | < 50 |  |  | COCCOc1cc2nccc(Oc3ccc(NC(=O)NC4CC4)c(F)c3)c2c2c1OCCO2 [Example 91, 1-cyclopropyl-3-(2-fluoro-4-((5-(2-methoxyethoxy)-2,3-dihydro-[1,4]dioxino[2,3-f]quinolin-10-yl)oxy)phenyl)urea]
21 | < 50 | < 50 |  |  | CCOc1cc2nccc(Oc3ccc(NC(=O)NC4CC4)c(Cl)c3)c2c2c1OCCO2 [Example 43, 1-(2-chloro-4-((5-ethoxy-2,3-dihydro-[1,4]dioxino[2,3-f]quinolin-10-yl)oxy)phenyl)-3-cyclopropylurea]
22 | < 50 |  |  | 50 to 500 | COCCN(C)CCCOc1cc2nccc(Oc3ccc(NC(=O)Nc4ccc(Cl)c(C(F)(F)F)c4)cc3)c2c2c1OCCO2 [Example 27, 1-(4-chloro-3-(trifluoromethyl)phenyl)-3-(4-((5-(3-((2-methoxyethyl)(methyl)amino)propoxy)-2,3-dihydro-[1,4]dioxino[2,3-f]quinolin-10-yl)oxy)phenyl)urea]
23 | < 50 | < 50 |  |  | CC(=O)N1CCN(CCCOc2cc3nccc(Oc4ccc(NC(=O)NC5CC5)c(Cl)c4)c3c3c2OCCO3)CC1 [Example 57, 1-(4-((5-(3-(4-acetylpiperazin-1-yl)propoxy)-2,3-dihydro-[1,4]dioxino[2,3-f]quinolin-10-yl)oxy)-2-chlorophenyl)-3-cyclopropylurea]
24 | < 50 | < 50 |  |  | CN(C)CCCCCCOc1cc2nccc(Oc3ccc(NC(=O)NC4CC4)c(Cl)c3)c2c2c1OCCO2 [Example 64, 1-(2-chloro-4-((5-((6-(dimethylamino)hexyl)oxy)-2,3-dihydro-[1,4]dioxino[2,3-f]quinolin-10-yl)oxy)phenyl)-3-cyclopropylurea]
25 | < 50 | < 50 |  |  | O=C(Nc1ccc(Oc2ccnc3cc(OC4CCOC4)c4c(c23)OCCO4)cc1Cl)NC1CC1 (stereo not shown) [Example 66, 1-(2-chloro-4-((5-((tetrahydrofuran-3-yl)oxy)-2,3-dihydro-[1,4]dioxino[2,3-f]quinolin-10-yl)oxy)phenyl)-3-cyclopropylurea]
26 | < 50 | 50 to 500 |  |  | COc1cc2nccc(Oc3ccc(NC(=O)Nc4ccc(Cl)c(C(F)(F)F)c4)cc3F)c2c2c1OCCO2 [Example 5, 1-(4-chloro-3-(trifluoromethyl)phenyl)-3-(3-fluoro-4-((5-methoxy-2,3-dihydro-[1,4]dioxino[2,3-f]quinolin-10-yl)oxy)phenyl)urea]
27 | < 50 | < 50 |  |  | CC1(O)CCN(CCCOc2cc3nccc(Oc4ccc(NC(=O)Nc5ccc(Cl)c(C(F)(F)F)c5)cc4)c3c3c2OCCO3)CC1 [Example 25, 1-(4-chloro-3-(trifluoromethyl)phenyl)-3-(4-((5-(3-(4-hydroxy-4-methylpiperidin-1-yl)propoxy)-2,3-dihydro-[1,4]dioxino[2,3-f]quinolin-10-yl)oxy)phenyl)urea]
28 | < 50 |  |  |  | COCCOc1cc2nccc(Oc3ccc(NC(=O)Nc4ccc(Cl)c(C(F)(F)F)c4)cc3F)c2c2c1OCCO2 [Example 36, 1-(4-chloro-3-(trifluoromethyl)phenyl)-3-(3-fluoro-4-((5-(2-methoxyethoxy)-2,3-dihydro-[1,4]dioxino[2,3-f]quinolin-10-yl)oxy)phenyl)urea]
29 | < 50 |  |  |  | COCCOc1cc2nccc(Oc3ccc(NC(=O)Nc4ccc(Cl)c(C(F)(F)F)c4)cc3)c2c2c1OCCO2 [Example 8, 1-(4-chloro-3-(trifluoromethyl)phenyl)-3-(4-((5-(2-methoxyethoxy)-2,3-dihydro-[1,4]dioxino[2,3-f]quinolin-10-yl)oxy)phenyl)urea]
